The text below walks through data of paper PMC4865845, “A human genome-wide loss-of-function screen identifies effective chikungunya antiviral drugs” (Nature Communications, 2016).

The test system of the data set is CHIKV. In kind it is cell-based, chikungunya virus.
The substance “s32095 (CAGAAACGATCTACAAGAA; chemistry not given here)” displayed a Score_si4 of 1.53. As to “Hs_CNOT3_2 (sense ACGGCTGAGGGACCAAATCAA; chemistry not given here)”, the Score_si3 is 1.32.

Regarding “s27210 (sense GGTTTTAAACATAACGAAA; chemistry not given here) [reference compound]”, the Score_si3 is reported as -0.32. The substance “Hs_PTBP1_5 (sense CACGCACATTCCGTTGCCTTA; chemistry not given here) [reference compound]” returned a Score_si2 of -1.23.

The substance “Hs_MAP3K14_6 (TACCTAGTGCATGCTCTGCAA; chemistry not given here)” registered a Score_si3 of 1.59. On to “Hs_BCHE_3 (CAGGAGTGAGTGAGTTTGGAA; chemistry not given here)”, for which the Score_si3 is given as 0.6.

Regarding “Hs_GRB10_2 (sense CTACCGTATAGTAACACTGTA; chemistry not given here)”, the Score_si1 is recorded as 0.95.

“s24801 (sense CCAAGGTCCTGAGGTCTAA; chemistry not given here)” came in with a Score_si3 of 1.43. Regarding “Hs_PCBP1_2 (TAAGAGTGGAATGTTAATAAA; chemistry not given here)”, the Score_si1 is on record as 1.94. Turning to “s32097 (ACAGCGCAAGTTCCAGTAT; chemistry not given here)”, the Score_si2 worked out at 1.75.

“s20629 (sense GGAGAAAGAATCAACGGAA; chemistry not given here)” returned a Score_si2 of 2. As to “Hs_ZA20D1_1 (AAGGAGGTTCTCAGTCAATAA; chemistry not given here)”, the Score_si2 is reported as 1.25. On to “Hs_IQGAP1_4 (sense TGCCCACTTAAGCATCATTAA; chemistry not given here)”, for which the Score_si3 is 0.98. Substance “Hs_PPP1R8_6 (TACAAATAAAGATGCCCTAAA; chemistry not given here)” displayed a Score_si2 of 0.7. The same measure, in the same setting: to “Hs_NUDT1_4 (CCGGGTTTCATCTGGAATTAA; chemistry not given here)” belongs 1.96. “s37918 (GAAGAGCACAAGAACCAGA; chemistry not given here)” gave a Score_si3 of 0.93. In the case of “s16045 (GGTTTATCCACGGTAAAGA; chemistry not given here) [reference compound]”, the Score_si4 is given as -0.44. In turn, “s9665 (CTCTCGTCCTTCTAGTAAA; chemistry not given here) [reference compound]” showed a Score_si3 of -0.95. “Hs_ODZ3_1 (CCGGGCTGTGTCAAAGAATAA; chemistry not given here)” displayed a Score_si1 of 1.47. For the substance “s27209 (sense GGGTATAGAGGATAACCAA; chemistry not given here) [reference compound]”, the Score_si2 is recorded as -0.58. On the same count and under the same terms, to “s993 (GGTGCGTCATATGCAGGAA; chemistry not given here) [reference compound]” belongs -0.55; to “s14674 (sense GTATGAAGGAGGTATCTTT; chemistry not given here)”, 2.12; to “s26120 (sense GGCCCTTCATCGATAGCTA; chemistry not given here) [reference compound]”, -0.97. In the case of “Hs_YEATS4_1 (AAGGGTGTTACTATCGTTAAA; chemistry not given here)”, the Score_si1 came to 1.23. “Hs_CHD8_1 (sense CAGGAGGTTATTGGAGACCAA; chemistry not given here)” gave a Score_si2 of 1.61. Still for that read-out and setting: to “s15798 (GAATTACGGAGATATAGAA; chemistry not given here)” belongs 1.46. “s9339 (TCACTTCTAGTTTTACTTT; chemistry not given here) [reference compound]” showed a Score_si3 of -0.69. Still for that read-out and setting: to “Hs_PTBP1_3 (sense CGACATAATCTCTGTATTATA; chemistry not given here) [reference compound]” belongs -0.58. With “Hs_KRTCAP2_6 (sense CTGACCCTGAATGTTCAATAA; chemistry not given here)”, the Score_si1 stood at 1.71. The same measure, in the same setting: to “Hs_P4HB_6 (AAGATGAACTGTAATACGCAA; chemistry not given here)” belongs 1.38. With “s38241 (TCCTTTTCCATGTACCAGA; chemistry not given here)”, the Score_si4 stood at 0.18.

As for “s9030 (CATCTGGAATTAACTGGAT; chemistry not given here)”, the Score_si3 amounted to 1.53.

The substance “Hs_DLD_4 (TCGCTTGAATTTAGACAAGAT; chemistry not given here)” registered a Score_si2 of 1.23.

Consider “Hs_RAB3D_3 (sense CTGGAACTATGGACCACATTA; chemistry not given here)”, for which the Score_si4 is recorded as 0.77. “s29268 (GGATGCGAAAGACAGAGTA; chemistry not given here)” had a Score_si2 of 1.55. Take “Hs_ROCK1_9 (sense AACGGTTAGAACAAGAGGTAA; chemistry not given here)”: the Score_si1 came to 1.18. Take “Hs_GSTP1_3 (sense TCCTTTCTCCAGGACCAATAA; chemistry not given here)”: the Score_si4 is on record as -0.14. As for “s16046 (GCACAGATCCTTCCGTTTA; chemistry not given here) [reference compound]”, the Score_si3 was -0.45.

On to “Hs_CUL4A_1 (sense ACCCATATTATTAGTGATAAA; chemistry not given here) [reference compound]”, for which the Score_si1 is recorded as -2.33. In the case of “s31791 (GACCTTAAGATACCAGTAT; chemistry not given here)”, the Score_si2 was 1.71.

“s18269 (CCATTGCGGAGATCAAGAA; chemistry not given here)” registered a Score_si4 of 0.18. For “Hs_EEF1A1_1 (CTGGTTAATGATAACAATGCA; chemistry not given here)”, the Score_si3 stood at 2.24. “Hs_MGC2803_1 (TGCGATGTACATAACTATTTA; chemistry not given here)” gave a Score_si4 of -0.65.

On to “s51653 (sense GCACCTTGCAGGATTGGAA; chemistry not given here)”, for which the Score_si3 is 0.68. Substance “Hs_IRAK1_10 (sense AAGCAAGTCAGGTTTCATGTA; chemistry not given here)” displayed a Score_si2 of 1.62. As for “Hs_ACO2_5 (CGGGAAGACATTGCCAATCTA; chemistry not given here)”, the Score_si1 came out at 2.43. On the same count and under the same terms, to “Hs_TMPIT_1 (sense CTGGTGGGTGTTCCATCACTA; chemistry not given here)” belongs 2.87. Consider “s14080 (sense GAGTGGTCTTTTCAACACT; chemistry not given here)”, for which the Score_si2 was found to be 1.38. With “Hs_AP2M1_3 (ACGTGTGACTTCGTCCAGTTA; chemistry not given here)”, the Score_si1 is given as 2.57.

In the case of “s4917 (sense GTGTATGAGTTTAGAGTCA; chemistry not given here)”, the Score_si2 worked out at 1.15.

“s5082 (sense CCTCGATAATATAACACGA; chemistry not given here)” had a Score_si4 of 0.67.

As for “s3162 (CATTTCGACTGGATCATAT; chemistry not given here)”, the Score_si1 came to 1.86. The substance “s7005 (sense AGAAAAATCTCAAGGAAAA; chemistry not given here)” returned a Score_si3 of 1.86.
